For test [1], the system named is batrachotoxin (BTX) binding site of the sodium channel. Nature of the test: Affinity to the batrachotoxin (BTX) binding site of the sodium channel. The conditions noted are these: rat cerebrocortex synaptosomes, [3H]-batrachotoxinin A20 α-benzoate 10 nM; test concentration not given.
The next test deals with T1, 5-HT transporter (Rattus norvegicus, UniProt P31652).
T1 construct: from tissue; host or cells: rat brain synaptosomes (marrow/medulla and pons), P2 fraction
T1 sequence (P31652 whole entry): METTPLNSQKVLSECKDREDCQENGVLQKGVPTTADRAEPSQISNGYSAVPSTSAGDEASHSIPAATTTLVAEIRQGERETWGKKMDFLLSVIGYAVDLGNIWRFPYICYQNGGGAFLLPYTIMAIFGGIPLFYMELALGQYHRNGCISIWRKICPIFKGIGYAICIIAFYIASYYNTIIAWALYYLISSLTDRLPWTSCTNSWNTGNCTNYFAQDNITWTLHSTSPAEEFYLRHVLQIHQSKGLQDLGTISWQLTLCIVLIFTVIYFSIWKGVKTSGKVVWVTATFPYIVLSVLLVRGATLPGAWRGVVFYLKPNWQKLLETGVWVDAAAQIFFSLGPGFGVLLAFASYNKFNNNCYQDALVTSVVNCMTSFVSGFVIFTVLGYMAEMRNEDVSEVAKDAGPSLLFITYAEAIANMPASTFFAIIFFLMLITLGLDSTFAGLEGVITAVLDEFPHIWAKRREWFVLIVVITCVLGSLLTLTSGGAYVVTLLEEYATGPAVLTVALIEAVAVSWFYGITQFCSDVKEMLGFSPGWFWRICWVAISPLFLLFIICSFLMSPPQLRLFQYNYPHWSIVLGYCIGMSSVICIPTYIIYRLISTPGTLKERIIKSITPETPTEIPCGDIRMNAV
Nature of the test: Inhibition of 5-HT uptake in synaptosomes. In kind it is biochemical. The conditions noted are these: for inhibition at 1 µM: read-out: Uptake_5-HT, rat, 1 μM, % inhibition.

This note sets out measurements from patent publication US7560468B2, “Substituted 1,4,8-triazaspiro[4,5]decan-2-one compounds” (Gruenenthal GmbH, priority 2004, dated 2009).

Structures are written as SMILES.

On to `CCOC(=O)CN1C(=O)C(CCSC)NC12CCN(S(=O)(=O)Cc1ccccc1)CC2` (centres unmarked) [Example 57, Ethyl[3-(2-methylsulfanylethyl)-2-oxo-8-benzolmethansulfonyl-1,4,8-triazaspiro[4,5]dec-1-yl]-acetate], for which, in test [1], the “BTX Inhibition” value amounted to 34. Further, the “Uptake_5-HT, rat, 1 μM, % inhibition” value at 5-HT transporter was 32%.

For `Cc1cc(C)c(S(=O)(=O)N2CCC3(CC2)NCC(=O)N3Cc2cccc(C#N)c2)c(C)c1` [Example 59, 3-[2-Oxo-8-(2,4,6-trimethylbenzolsulfonyl)-1,4,8-triazaspiro[4,5]dec-1-ylmethyl]-benzonitrile], the “BTX Inhibition” value in test [1] was 50. Also, the “Uptake_5-HT, rat, 1 μM, % inhibition” value at 5-HT transporter is given as 50%.

Take `COC(=O)c1ccc(CN2C(=O)CNC23CCN(S(=O)(=O)c2c(C)cc(C)cc2C)CC3)cc1` [Example 60, Methyl-4-[2-oxo-8-(2,4,6-trimethylbenzolsulfonyl)-1,4,8-triazaspiro[4,5]dec-1-ylmethyl]-benzoate]: the “BTX Inhibition” value in test [1] came to 59. Further, the “Uptake_5-HT, rat, 1 μM, % inhibition” value on 5-HT transporter came to 65%.

By inhibition is commonly meant how much of the control response was suppressed. Turning to `CCOC(=O)CN1C(=O)C(Cc2ccccc2)NC12CCN(S(=O)(=O)c1ccc(Cl)s1)CC2` (centres unmarked) [Example 61, Ethyl[3-benzyl-8-(5-chlorothiophen-2-sulfonyl)-2-oxo-1,4,8-triazaspiro[4,5]dec-1-yl]-acetate], the “BTX Inhibition” value in test [1] was 50. Also, the inhibition at 1 µM on 5-HT transporter stood at 61%.

For `CCOC(=O)CN1C(=O)C(Cc2ccccc2)NC12CCN(S(=O)(=O)c1cccc(C)c1)CC2` (centres unmarked) [Example 63, Ethyl[3-benzyl-2-oxo-8-(toluol-3-sulfonyl)-1,4,8-triazaspiro[4,5]dec-1-yl]-acetate], the “BTX Inhibition” value in test [1] is listed as 36. Further, the “Uptake_5-HT, rat, 1 μM, % inhibition” value at 5-HT transporter is recorded as 59%.

On to `CCOC(=O)CN1C(=O)C(Cc2ccccc2)NC12CCN(S(=O)(=O)c1ccccc1)CC2` (centres unmarked) [Example 66, Ethyl(8-benzolsulfonyl-3-benzyl-2-oxo-1,4,8-triazaspiro[4,5]dec-1-yl)acetate], for which, in test [1], the “BTX Inhibition” value turned out to be 39. At 5-HT transporter, the “Uptake_5-HT, rat, 1 μM, % inhibition” value worked out at 64%.

For `CCCc1ccc(S(=O)(=O)N2CCC3(CC2)NC(Cc2ccccc2)C(=O)N3CC(=O)OCC)cc1` (centres unmarked) [Example 67, Ethyl[3-benzyl-2-oxo-8-(4-propylbenzolsulfonyl)-1,4,8-triazaspiro[4,5]dec-1-yl]-acetate], the “BTX Inhibition” value in test [1] turned out to be 40. Besides, the “Uptake_5-HT, rat, 1 μM, % inhibition” value on 5-HT transporter is 64%.

Take `CCOC(=O)CN1C(=O)C(Cc2ccccc2)NC12CCN(S(=O)(=O)c1ccc(F)c(Cl)c1)CC2` (centres unmarked) [Example 69, Ethyl[3-benzyl-8-(3-chloro-4-fluorobenzolsulfonyl)-2-oxo-1,4,8-triazaspiro[4,5]dec-1-yl]-acetate]: in test [1], the “BTX Inhibition” value is 73. Moreover, the “Uptake_5-HT, rat, 1 μM, % inhibition” value at 5-HT transporter came to 62%.

With `O=C1C(Cc2ccccc2)NC2(CCN(S(=O)(=O)c3ccccc3)CC2)N1Cc1ccccc1F` (centres unmarked) [Example 71, 8-Benzolsulfonyl-3-benzyl-1-(2-fluorobenzyl)-1,4,8-triazaspiro[4,5]decan-2-one], in test [1], the “BTX Inhibition” value came out at 85. Also, at 5-HT transporter, the “Uptake_5-HT, rat, 1 μM, % inhibition” value was 76%.

For `CCOC(=O)CN1C(=O)C(Cc2ccccc2)NC12CCN(S(=O)(=O)c1c(C)cc(C)cc1C)CC2` (centres unmarked) [Example 72, Ethyl[3-benzyl-2-oxo-8-(2,4,6-trimethylbenzolsulfonyl)-1,4,8-triazaspiro[4,5]dec-1-yl]-acetate], the “BTX Inhibition” value in test [1] is given as 75. For the same compound, the “Uptake_5-HT, rat, 1 μM, % inhibition” value on 5-HT transporter was determined as 75%.

For `CCOC(=O)CN1C(=O)C(Cc2ccccc2)NC12CCN(S(=O)(=O)c1cc(OC)ccc1OC)CC2` (centres unmarked) [Example 74, Ethyl[3-benzyl-8-(2,5-dimethoxy-benzolsulfonyl)-2-oxo-1,4,8-triazaspiro[4,5]dec-1-yl]-acetate], the “BTX Inhibition” value in test [1] was 30. Also, at 5-HT transporter, the “Uptake_5-HT, rat, 1 μM, % inhibition” value was found to be 74%.

As for `CSCCC1NC2(CCN(S(=O)(=O)N(C)C)CC2)N(Cc2ccc3ccccc3c2)C1=O` (centres unmarked) [Example 75, 3-(2-Methylsulfanylethyl)-1-naphthalin-2-ylmethyl-2-oxo-1,4,8-triazaspiro[4,5]decan-8-sulfonic acid dimethylamide], in test [1], the “BTX Inhibition” value came to 62. Also, on 5-HT transporter, the inhibition at 1 µM was 74%.

`CC(C)C1NC2(CCN(S(=O)(=O)c3ccc4c(c3)CN(C(=O)C(F)(F)F)CC4)CC2)N(Cc2cccc(C#N)c2)C1=O` (centres unmarked) [Example 77, 3-{3-Isopropyl-2-oxo-8-[2-(2,2,2-trifluoroacetyl)-1,2,3,4-tetrahydroisoquinolin-7-sulfonyl]-1,4,8-triazaspiro[4,5]dec-1-ylmethyl}-benzonitrile]: the “BTX Inhibition” value in test [1] amounted to 36. Besides, the inhibition at 1 µM at 5-HT transporter was 32%.

On to `C=CCN1C(=O)C(CCSC)NC12CCN(S(=O)(=O)c1c(C)cc(OC)c(C)c1C)CC2` (centres unmarked) [Example 79, 1-Allyl-8-(4-methoxy-2,3,6-trimethylbenzolsulfonyl)-3-(2-methylsulfanylethyl)-1,4,8-triazaspiro[4,5]decan-2-one], for which the “BTX Inhibition” value in test [1] was determined as 67. Also, at 5-HT transporter, the “Uptake_5-HT, rat, 1 μM, % inhibition” value worked out at 37%.

Take `CCOC(=O)CN1C(=O)C(Cc2ccccc2)NC12CCN(S(=O)(=O)c1ccccc1C(=O)OC)CC2` (centres unmarked) [Example 80, Methyl 2-(3-benzyl-1-ethoxycarbonylmethyl-2-oxo-1,4,8-triazaspiro[4,5]decan-8-sulfonyl)benzoate]: the “BTX Inhibition” value in test [1] amounted to 33. In addition, the inhibition at 1 µM on 5-HT transporter was found to be 84%.

For `O=C1C(Cc2ccccc2)NC2(CCN(S(=O)(=O)c3ccccc3C(F)(F)F)CC2)N1Cc1ccccc1F` (centres unmarked) [Example 81, 3-Benzyl-1-(2-fluorobenzyl)-8-(2-trifluoromethylbenzolsulfonyl)-1,4,8-triazaspiro[4,5]decan-2-one], in test [1], the “BTX Inhibition” value was found to be 87. Further, the “Uptake_5-HT, rat, 1 μM, % inhibition” value at 5-HT transporter came out at 81%.

With `CC(C)CC1NC2(CCN(C(=S)Nc3ccc(F)cc3)CC2)NC1=O` (centres unmarked) [Example 112, 2-Isobutyl-3-oxo-1,4,8-triazaspiro[4,5]decan-8-thiocarboxylic acid (4-fluorobenzol)amide], the “BTX Inhibition” value in test [1] turned out to be 30. Also, on 5-HT transporter, the “Uptake_5-HT, rat, 1 μM, % inhibition” value was 31%.

As for `CCCCN1C(=O)C(C(C)C)NC12CCN(C(=S)Nc1ccccc1)CC2` (centres unmarked) [Example 116, 1-Butyl-3-isopropyl-2-oxo-1,4,8-triazaspiro[4,5]decan-8-thiocarboxylic acid benzolamide], in test [1], the “BTX Inhibition” value is 30. Moreover, the “Uptake_5-HT, rat, 1 μM, % inhibition” value on 5-HT transporter was found to be 40%.

Consider `CCCCN1C(=O)C(C(C)C)NC12CCN(C(=S)Nc1cc(Cl)ccc1Cl)CC2` (centres unmarked) [Example 117, 1-Butyl-3-isopropyl-2-oxo-1,4,8-triazaspiro[4,5]decan-8-thiocarboxylic acid (2,5-dichlorobenzol)amide], for which, in test [1], the “BTX Inhibition” value is given as 44. Besides, the “Uptake_5-HT, rat, 1 μM, % inhibition” value at 5-HT transporter is reported as 33%.

On to `CCCCN1C(=O)C(CCSC)NC12CCN(C(=S)Nc1cc(Cl)ccc1Cl)CC2` (centres unmarked) [Example 120, 1-Butyl-3-(2-methylsulfanylethyl)-2-oxo-1,4,8-triazaspiro[4,5]decan-8-thiocarboxylic acid (2,5-dichlorobenzol)amide], for which the “BTX Inhibition” value in test [1] worked out at 49. On 5-HT transporter, the “Uptake_5-HT, rat, 1 μM, % inhibition” value turned out to be 58%.

Regarding `COCCNC(=S)N1CCC2(CC1)NC(CCSC)C(=O)N2Cc1ccc2ccccc2c1` (centres unmarked) [Example 121, 3-(2-Methylsulfanylethyl)-1-naphthalin-2-ylmethyl-2-oxo-1,4,8-triazaspiro[4,5]decan-8-thiocarboxylic acid (2-methoxy-ethyl)amide], the “BTX Inhibition” value in test [1] was 47. Also, on 5-HT transporter, the inhibition at 1 µM was found to be 39%.

Regarding `CCCCN1C(=O)C(C(C)C)NC12CCN(C(=S)Nc1ccccc1F)CC2` (centres unmarked) [Example 122, 1-Butyl-3-isopropyl-2-oxo-1,4,8-triazaspiro[4,5]decan-8-thiocarboxylic acid (2-fluorobenzol)amide], the “BTX Inhibition” value in test [1] came to 35. Also, the “Uptake_5-HT, rat, 1 μM, % inhibition” value at 5-HT transporter was found to be 32%.

As for `CCCCN1C(=O)C(C(C)C)NC12CCN(C(=S)Nc1cccc(C)c1)CC2` (centres unmarked) [Example 124, 1-Butyl-3-isopropyl-2-oxo-1,4,8-triazaspiro[4,5]decan-8-thiocarboxylic acid m-tolylamide], the “BTX Inhibition” value in test [1] is listed as 41. Also, the inhibition at 1 µM on 5-HT transporter came to 47%.

For `C=CCN1C(=O)C(C(C)C)NC12CCN(C(=S)Nc1cc(F)ccc1F)CC2` (centres unmarked) [Example 128, 1-Allyl-3-isopropyl-2-oxo-1,4,8-triazaspiro[4,5]decan-8-thiocarboxylic acid (2,5-difluorobenzol)amide], the “BTX Inhibition” value in test [1] came to 33. In addition, at 5-HT transporter, the “Uptake_5-HT, rat, 1 μM, % inhibition” value came out at 57%.

For the compound `C=CCNC(=S)N1CCC2(CC1)NC(CCSC)C(=O)N2Cc1ccccc1C#N` (centres unmarked) [Example 129, 1-(2-Cyanobenzyl)-3-(2-methylsulfanylethyl)-2-oxo-1,4,8-triazaspiro[4,5]decan-8-thiocarboxylic acid allylamide], in test [1], the “BTX Inhibition” value was 36. The inhibition at 1 µM on 5-HT transporter stood at 41%.

Take `CCCCN1C(=O)C(CCSC)NC12CCN(C(=S)NCC1CCCCC1)CC2` (centres unmarked) [Example 132, 1-Butyl-3-(2-methylsulfanylethyl)-2-oxo-1,4,8-triazaspiro[4,5]decan-8-thiocarboxylic acid cyclohexylmethylamide]: the “BTX Inhibition” value in test [1] worked out at 71. For the same compound, the inhibition at 1 µM at 5-HT transporter was 30%.

Regarding `CC(C)C1NC2(CCN(C(=S)Nc3cc(Cl)ccc3Cl)CC2)N(Cc2ccccc2)C1=O` (centres unmarked) [Example 136, 1-Benzyl-3-isopropyl-2-oxo-1,4,8-triazaspiro[4,5]decan-8-thiocarboxylic acid (2,5-dichlorobenzol)amide], in test [1], the “BTX Inhibition” value stood at 66. For the same compound, the “Uptake_5-HT, rat, 1 μM, % inhibition” value at 5-HT transporter was determined as 44%.

With `CSCCC1NC2(CCN(C(=S)Nc3ccc(C(C)C)cc3)CC2)N(Cc2ccccc2)C1=O` (centres unmarked) [Example 139, 1-Benzyl-3-(2-methylsulfanylethyl)-2-oxo-1,4,8-triazaspiro[4,5]decan-8-thiocarboxylic acid (4-isopropylbenzol)amide], the “BTX Inhibition” value in test [1] was determined as 97. The “Uptake_5-HT, rat, 1 μM, % inhibition” value on 5-HT transporter is 63%.
